Source: ChEMBL document CHEMBL1158175, “Substituted benzylaminoalkylindoles with preference for the sigma2 binding site” (Eur J Med Chem, 2008)

Legend:
Rattus norvegicus [1] = species: Rattus norvegicus; test: Displacement of [3H]DTH from sigma 2 receptor in rat liver homogenate at 100 nM in presence of (+)-pentazocine; assay type: tissue-based
[2] = molecular target: Sigma non-opioid intracellular receptor 1 (Rattus norvegicus) (UniProt Q9R0C9); test: Displacement of [3H] (+)-pentazocine from sigma 1 receptor in rat liver homogenate at 100 nM; assay type: tissue-based
Rattus norvegicus [3] = species: Rattus norvegicus; test: Selectivity ratio of Ki for rat sigma 1 receptor to Ki for rat sigma 2 receptor
[4] = molecular target: Sigma non-opioid intracellular receptor 1 (Rattus norvegicus, UniProt Q9R0C9); test: Displacement of [3H] (+)-pentazocine from sigma 1 receptor in rat liver homogenate; assay type: tissue-based
[5] = Displacement of [3H]DTH from sigma 2 receptor in rat liver homogenate in presence of (+)-pentazocine; assay type: tissue-based

Chain of Sigma non-opioid intracellular receptor 1 (Rattus norvegicus) (Q9R0C9 whole entry): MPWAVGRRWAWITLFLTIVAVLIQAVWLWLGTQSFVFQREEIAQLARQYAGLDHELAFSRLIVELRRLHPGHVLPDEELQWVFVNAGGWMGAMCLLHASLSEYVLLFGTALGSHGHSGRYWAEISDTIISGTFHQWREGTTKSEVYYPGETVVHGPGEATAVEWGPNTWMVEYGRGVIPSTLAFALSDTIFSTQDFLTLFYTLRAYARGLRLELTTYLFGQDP
Chain of Sigma non-opioid intracellular receptor 1 (Q9R0C9 whole entry): as above

| SMILES | Activity (Rattus norvegicus [1]) | Activity [2] | Ratio Ki (Rattus norvegicus [3]) | Ki [4] | Ki [5] | IC50 [5] |
| --- | --- | --- | --- | --- | --- | --- |
| CN(CCCc1cn(-c2ccc(F)cc2)c2ccccc12)Cc1ccccc1Cl | 40% | 56% |  |  |  |  |
| CN(CCCCc1cn(-c2ccc(F)cc2)c2ccccc12)Cc1cccc(Cl)c1 | 89% | 22% | 7.9 | 201 nM | 25.6 nM |  |
| CN(CCCCc1cn(-c2ccc(F)cc2)c2ccccc12)Cc1cccc(Br)c1 | 78% | 28% |  |  |  |  |
| CN(CCCCc1cn(-c2ccc(F)cc2)c2ccccc12)Cc1ccc(Br)cc1 | 84% | 70% |  |  |  |  |
| Cc1cccc(CN(C)CCCCc2cn(-c3ccc(F)cc3)c3ccccc23)c1 | 85% | 51% |  |  |  |  |
| COc1cccc2c1CCCC2CCCCN1CCN(C2CCCCC2)CC1 (stereo not drawn) |  |  |  |  | 0.34 nM |  |
| CN(CCCc1cn(-c2ccc(F)cc2)c2ccccc12)Cc1cccc(Cl)c1 | 59% | 42% | 0.8 | 98.9 nM | 124 nM |  |
| CN(CCCc1cn(-c2ccc(F)cc2)c2ccccc12)Cc1ccc(Cl)cc1 | 59% | 68% |  |  |  |  |
| CN(CCCCc1cn(-c2ccc(F)cc2)c2ccccc12)Cc1ccc(Cl)c(Cl)c1 | 69% | 10% |  |  |  |  |
| Fc1ccc(-n2cc(CCCCN3CCC4(CC3)OCc3ccccc34)c3ccccc32)cc1 [SIRAMESINE] |  |  |  |  |  | 0.12 nM |
| Cc1ccc(CN(C)CCCCc2cn(-c3ccc(F)cc3)c3ccccc23)cc1 | 87% | 71% |  |  |  |  |
| Cc1ccc(CN(C)CCCCc2cn(-c3ccc(F)cc3)c3ccccc23)cc1C | 93% | 37% | 0.05 | 20.8 nM | 5.9 nM |  |
| Cc1ccc(CN(C)CCCc2cn(-c3ccc(F)cc3)c3ccccc23)cc1 | 78% | 69% |  |  |  |  |
| CN(CCCc1cn(-c2ccc(F)cc2)c2ccccc12)Cc1ccccc1Br | 43% | 41% |  |  |  |  |
| CN(CCCCc1cn(-c2ccc(F)cc2)c2ccccc12)Cc1ccc(Cl)cc1 | 85% | 72% |  |  |  |  |
| CN(CCCCc1cn(-c2ccc(F)cc2)c2ccccc12)Cc1ccccc1 | 68% | 76% | 0.76 | 43 nM | 57.7 nM |  |
| CN(CCCc1cn(-c2ccc(F)cc2)c2ccccc12)Cc1ccccc1 | 27% | 78% | 0.05 | 20.8 nM | 444 nM |  |
| CN(CCCc1cn(-c2ccc(F)cc2)c2ccccc12)Cc1ccc(Cl)c(Cl)c1 | 39% | 28% |  |  |  |  |
| CN(CCCCc1cn(-c2ccc(F)cc2)c2ccccc12)Cc1ccccc1Cl | 87% | 58% |  |  |  |  |
| Cc1cccc(CN(C)CCCc2cn(-c3ccc(F)cc3)c3ccccc23)c1 | 64% | 63% |  |  |  |  |
| Cc1ccc(CN(C)CCCc2cn(-c3ccc(F)cc3)c3ccccc23)cc1C | 85% | 38% | 2.5 | 118 nM | 46.9 nM |  |
| CN(CCCc1cn(-c2ccc(F)cc2)c2ccccc12)Cc1ccccc1F | 46% | 59% |  |  |  |  |
| CN(CCCc1cn(-c2ccc(F)cc2)c2ccccc12)Cc1ccc(Br)cc1 | 54% | 71% |  |  |  |  |
| CN(CCCCc1cn(-c2ccc(F)cc2)c2ccccc12)Cc1ccccc1F | 88% | 49% |  |  |  |  |
| CN(CCCCc1cn(-c2ccc(F)cc2)c2ccccc12)Cc1ccccc1Br | 86% | 46% |  |  |  |  |
| CN(CCCc1cn(-c2ccc(F)cc2)c2ccccc12)Cc1cccc(Br)c1 | 62% | 40% |  |  |  |  |
